Results: patent US12673918B2, “Small molecule RPN13 inhibitors with antitumor properties” (The Johns Hopkins University, priority 2019, dated 2026)
pIC50: −log10 of the molar value.

Tests used:
HeLa = conditions: human
ROS = ROS by Amplex Red, ES2 cells; type: cell-based, human; conditions: ES2, 12 hr; listed in order of potency
Description: FIG. 16C illustrates ES2 cells treated for 12 hr with compounds (or as a positive control, H2O2) at the indicated doses, and then reactive oxygen species (i.e. ROS) levels measured by adding Amplex Red and HRP.
Amplex Red Assay to measure ROS: Amplex Red reagent (#A12222, Thermo Scientific) combined with horseradish peroxidase (HRP) was used to detect H2O2. Briefly cells were treated in 96 well plates with corresponding compounds at indicated times. Next 50 μM Amplex® Red reagent plus 1 U/mL HRP in 50 mM sodium phosphate buffer, pH 7.4, were added to cells and incubated for 30 minutes at room temperature. Fluorescence was measured with a fluorescence-based microplate reader using excitation at 530±12.5 nm and detection at 580±25 nm. Background fluorescence of 969 units for Amplex® Red reagent, determined for a no-H2O2 control reaction, was subtracted from each value. H2O2 treatment (1 h) was used as positive control.

SUM1315 = test: cells; conditions: read-out: cytotoxicity IC50 SUM1315
Description: (§1) Cell lines and cytotoxicity assays: All cell lines were obtained from the American Type Culture Collection (ATCC) and cultured in the specified medium supplemented with 10% fetal bovine serum, 100 IU/mL penicillin, and 100 μg/mL streptomycin at 37° C. in a humidified 5% CO2/95% air incubator. […] To assess drug cytotoxicity, cells were seeded at 2,500 cells/well (10,000 cells/well for MM lines) in 100 μL medium in 96-well plate and after 24 treated with compounds for 72 h, incubated according to the manufacturer's protocol with the Thiazolyl Blue Tetrazolium Bromide (Sigma, M2128) and A570 measured using a Benchmark Plus microplate spectrophotometer (BIO-RAD). IC50 data was analyzed by Graphpad Prism software. In the chirality studies the cells were treated with compounds for 48 h, and the cells were incubated and measured via the preceeding protocols.

RPE1-ATMKO = test: MTT cytotoxicity assay, RPE1-ATMKO; conditions: read-out: cytotoxicity IC50 RPE1-ATMKO
Description: as §1

[1] = system: proteasome (4UbFL reporter); test: 4UbFL reporter, ES2 cells stably expressing 4UbFL; type: cell-based, human; conditions: ES2 stably expressing 4UbFL, 4 h
Text: FIG. 14B illustrates fold increase in bioluminiscence of ES2 cells stably expressing 4UbFL at 4 hrs post-treatment of compounds, as measured by luminometer.
Next examined was the effect of compounds on proteasome function using a DNA construct that expresses a reporter gene comprising firefly luciferase fused to four molecules of ubiquitin (4UbFL) at its amino terminus (41). The 4UbFL is rapidly degraded by active proteasomes, resulting in a low level of enzymic activity and bioluminescence. Upon proteasome inhibition, increased 4UbFL activity can be measured by luminescence assay using luciferin as a substrate as the protein is stabilized.

ID8-VegfDefb29 tumor = test: in vivo; type: in vivo, C57BL/6 mice
Description: To assess therapeutic efficacy the ID8-VegfDefb29 cell line was utilized in a syngeneic mouse model of ovarian cancer expressing luciferase (62). ID8 was first derived from spontaneous malignant transformation of C57BL/6 mouse ovarian surface epithelial cells in vitro (69). ID8-Vegf Defb29 cells represent a more aggressive variant of ovarian cancer in which VEGF provides vascular growth which is augmented by the presence of DEFB29 (62). C57BL/6 mice were injected i.p. with ID8-VegfDefb29 cells stably expressing firefly luciferase (0.5×10^6 cells) in PBS (100 μL). After 72 hrs, mice were imaged for their basal luminescence levels using an IVIS200 imager. Mice with visible luminescence were randomized into equal groups including vehicle (n=8), RA414 (3 mg/Kg, n=8), RA414 (10 mg/Kg, n=8) and treated every three days for up to 3 weeks. Mice were imaged every week to measure bioluminescence expressed by tumor after administration of luciferin. […] On day 24 two mice were sacrificed after collection of ascites, and the remainder required euthanasia on day 31 (FIGS. 17A and 17B). Administration of RA414 at 10 mg/kg (3 doses delivered every three days) regressed the tumor completely in 50% of the mice with less than 10% weight loss. […] This is consistent with proteasome inhibition within the ascites cells by the […] RA414 treatment regimen.
Tumor Studies: Female C57BL6 or Nude mice were inoculated with 10^6 ES2-Luciferase cells i.p. in 100 uL PBC, or ID8-VegfDefb29 syngeneic mouse model of ovarian cancer expressing luciferase (62) i.p. in 100 μL PBS. At day 3, mice were imaged for basal level luminescence activity with a Xenogen IVIS 200 after injection i.p. with luciferin (0.3 mg in 100 water). Mice were randomized into two groups (n=8) and treated i.p. with compounds or vehicle (25% (w/v) β-Hydroxypropylcyclodextrin in water), and imaged again on days 7 and 14. RA375 was administered i.p. at 10 mg/Kg.

DLD-BRCA2-Ve = test: MTT cytotoxicity assay, DLD-BRCA2-Ve; conditions: read-out: cytotoxicity IC50 DLD-BRCA2-Ve
Description: as §1

HEC-1A = test: MTT cytotoxicity assay, HEC-1A; conditions: read-out: cytotoxicity IC50 HEC-1A, Tables 3A/4B/4C
in vitro = conditions: human
Description: as §1

OV2008 = test: MTT cytotoxicity assay, OV2008; conditions: read-out: cytotoxicity IC50 OV2008
Description: as §1

[2] = system: proteasome (4UbFL reporter); test: 4UbFL reporter in leg muscle of CD1 mice; type: in vivo
Description: Pilot safety studies were performed in CD1 mice (n=3/dose group of healthy female mice aged 6-8 weeks) with increasing single doses delivered i.p. and the NOAEL (no-observed-adverse-effect level) was selected for further animal studies. […] Bortezomib was dissolved in a minimal amount of DMSO and further diluted with saline before injection in a dose finding study. […] To measure on-target inhibition of proteasome activity in mice, a leg muscle of CD-1 mice was transduced with the 4UbFL reporter construct. […] Briefly, mouse leg muscle was electroporated with 4UbFL plasmid and basal bioluminescence was measured after 24 hr using IVIS200 imager after injecting luciferin substrate. Mice were randomized (n=5/group) and treated with compounds in PEG400: Cremophor: Tween40 combination or vehicle alone as shown in Table 5 with one dose delivered by intraperitoneal injection. The mice were again imaged at 4 h, 24 h, 48 h post treatment.

[3] = MTT cytotoxicity assay, RPE1; conditions: human
Description: as §1

ID8 (murine) = test: MTT cytotoxicity assay, ID8; type: cell-based; conditions: Mus musculus, 48 h, read-out: IC50 ID8 (murine)
MCF7 = test: MTT cytotoxicity assay, MCF7; conditions: read-out: cytotoxicity IC50 MCF7, Tables 3A/4B/4C
VU93 = test: MTT cytotoxicity assay, VU93; conditions: read-out: cytotoxicity IC50 VU93, Tables 3A/4B/4C
[4] = 3 mg/Kg, 9 doses delivered every three days

Row | SMILES | pIC50 (HeLa) | level of ROS (Amplex Red) (ROS) | pIC50 (SUM1315) | pIC50 (RPE1-ATMKO) | 4UbFL bioluminescence [1] | pIC50 (DLD-BRCA2-Ve) | pIC50 (HEC-1A) | pIC50 (in vitro) | pIC50 (OV2008) | pIC50 (ID8 (murine)) | pIC50 (MCF7) | pIC50 (VU93) | other results
1 | C[C@H]1/C(=C\c2ccc([N+](=O)[O-])cc2)C(=O)/C(=C/c2ccc([N+](=O)[O-])cc2)CN1C(=O)[C@@H](N)Cc1ccccc1 | 7.64 | raised the level of ROS in a dose-dependent manner | 6.59 | 7.62 | increased bioluminescence in a dose dependent manner | 7.26 | 6.68 | 7.39 | 7.40 | – | – | – | tumor burden compared to vehicle (ID8-VegfDefb29 tumor; 15 mg/Kg every 3 days, total 5 doses, day 17, p<0.0001): significant decrease in tumor burden; fold increased bioluminescence (4UbFL, leg muscle) ([2]; CD1 mice, 30 mg/kg i.p., PEG400: Cremophor: Tween40, at 4 h and 24 h): 4-6 fold; fold increased bioluminescence (4UbFL, leg muscle) ([2]; mouse, in vivo, ip, 30 mg/kg): 14-22 fold
2 | CC(C)C[C@H](NC(=O)[C@H](Cc1ccccc1)NC(=O)c1cnccn1)B(O)O [Bortezomib, bortezomib, reference compound] | – | raised the level of ROS in a dose-dependent manner | – | – | – | – | 6.82 | – | – | – | – | – | pIC50 ([3]; RPE1 cells): 8.46
3 | N[C@@H](Cc1ccccc1)C(=O)N1C/C(=C\c2ccc([N+](=O)[O-])cc2)C(=O)/C(=C/c2ccc([N+](=O)[O-])cc2)C1 [RA183, reference compound] | – | raised the level of ROS in a dose-dependent manner | – | – | – | – | 6.42 | – | 7.10 | 6.70 | – | – | –
4 | N[C@@H](Cc1ccccc1)C(=O)N1C/C(=C\c2ccc(Cl)c(Cl)c2)C(=O)/C(=C/c2ccc(Cl)c(Cl)c2)C1 [RA190, reference compound] | – | – | 5.86 | – | – | – | 6.37 | – | – | – | 6.12 | 6.20 | –
5 | O=C(CCl)N[C@@H](Cc1ccccc1)C(=O)N1C/C(=C\c2ccc([N+](=O)[O-])cc2)C(=O)/C(=C/c2ccc([N+](=O)[O-])cc2)C1 [RA375] | 7.89 | – | 7.72 | – | – | 7.74 | – | 7.39 | – | 7.36 | – | – | –
6 | CC1/C(=C\c2ccc([N+](=O)[O-])cc2)C(=O)/C(=C/c2ccc([N+](=O)[O-])cc2)CN1C(=O)[C@H](Cc1ccccc1)NC(=O)CCl (stereo partly drawn) [RA414] | – | raised the level of ROS in a dose-dependent manner | 7.70 | > 7.40 | increased bioluminescence in a dose dependent manner | > 7.40 | 6.71 | – | – | – | 7.12 | 7.40 | tolerability (ID8-VegfDefb29 tumor; [4]): well tolerated; tumor growth (ID8-VegfDefb29 tumor; [4]): inhibited tumor growth; mice with tumor regressed completely (ID8-VegfDefb29 tumor; 10 mg/kg, 3 doses delivered every three days): 50%; mice that did not tolerate the dose (>10% weight loss) or died (ID8-VegfDefb29 tumor; 10 mg/kg, 3 doses delivered every three days, tumor-bearing mice): 50%; pIC50 [3]: > 7.40; duration of on-target activity (4UbFL, leg muscle) ([2]; CD1 mice, 3 mg/kg i.p., PEG system): on-target activity over 72 hr similar to bortezomib
